Reference: ChEMBL document CHEMBL3616398, “Recent advances on the synthesis of hepatitis C virus NS5B RNA-dependent RNA-polymerase inhibitors” (Eur J Med Chem, 2015)

Legend:
Hepatitis C virus [1] = experiment: Antiviral activity against HCV genotype 1b replicon system; format: functional, organism-based, Hepacivirus hominis
[2] = Inhibition of HCV genotype 1b NS5B RNA dependent RNA polymerase assessed as inorganic pyrophosphate generation by luminometry; parameters: species or system Hepatitis C virus subtype 1b
Hepatitis C virus [3] = experiment: Antiviral activity against HCV genotype 1b infected in human Ava.5 cells after 3 days assessed as protection from virus-induced cytotoxicity by MTT assay; format: functional, organism-based, Hepacivirus hominis; conditions: Ava5, 72 h

Work on Cc1nc2c(s1)CCCn1c-2c(C2CCCCC2)c2ccc(C(=O)O)cc21 yielded an IC50 (Hepatitis C virus [1]) of 8.3 µM.

O=C(NCCCc1ccccc1)c1nc2ccccc2c(=O)n1O showed an IC50 [2] of 8.77 µM and an EC50 (Hepatitis C virus [3]) of 17.5 µM.
